According to US8450278B2, “MUC18 targeting peptides” (Board of Regents, The University of Texas System, priority 2008, dated 2013):
Entries after “also recorded” stand apart in the source; their conditions may differ.

Tested on: B16 melanoma cells
Experiment: Phage binding assay on B16 melanoma cells pre and post co-culture with B-1 lymphocytes
Format: cell-based, mouse
Description: The inventors used a random phage library displaying the insert CX7C(C, cysteine; X, any residue) for selection of peptides binding to melanoma cells post co-culture with B-1 lymphocytes (Giordano et al., 2001). As a pre-clearing step, 10^6 B16 cells without exposure to B-1 lymphocytes were detached, washed and resuspended in RPMI containing 2% BSA plus 10^9 transducing units (TU) of unselected phage library. Cells and phage were transferred to the top of a non-miscible organic lower phase (dibutyl phthalate: cyclohexane, 9:1 [v:v]) and centrifuged at 10,000 g for 10 min. The unbound phage population remaining in the aqueous upper phase (pre-cleared library) was collected into a fresh eppendorf tube and incubated with 10^6 B16 cells isolated post co-culture with B-1 lymphocytes. Phage in the organic lower phase were recovered from the cell pellet by bacterial host infection (Pasqualini et al., 2000; Cardo-Vila et al., 2003; Marchio et al., 2004; Marchio et al., 2004; Kolonin et al., 2004; Arap et al, 2004; Hajitou et al., 2006).
For phage binding assays to B16 melanoma, 10^6 cells pre and post co-culture with B-1 lymphocytes were incubated with each specific phage clone (10^9 TU) or negative controls. Melanoma cells and phage were centrifuged through the organic phase and the cell-bound phage clones were recovered by bacterial infection (Giordano et al., 2001).

CLFMRLAWC [SEQ ID NO:1]
phage/peptide binding to melanoma cells (in words): marked enrichment in phage binding; also recorded: selectively bind to cancerous cells
